# Test results as given in US20230270764A1, “COMPOSITION COMPRISING CANNABINOIDS, TERPENES, AND FLAVONOIDS FOR TREATING DEPRESSION” (priority 2020, published 2023).
# Columns and labels:
# BV2 microglial cells [1] = experiment: LPS-induced TNFα secretion by BV2 microglia cell cultures (ELISA); assay type: cell-based, murine; conditions: for effect on lipopolysaccharide-induced TNFα secretion: THC 0.1, 0.5 and 1 µM, CBDA 0.2, 1 and 2 µM, CBC 0.1, 1 and 2 µM, α-pinene, β-pinene, limonene 25 or 100 µM; for levels of TNFα compared to cultures treated with vehicle and LPS: 24-hours incubation, CBD 10 but not 1 µM, linalool 100 but not 25 µM, kaempferol dose-dependently at 10, 25 and 50 µM, quercetin 10 and 25 but not 5 µM; for IC50: Mus musculus, BV-2, read-out: IC50 for inhibiting LPS-induced TNFα release
# Description: (§1) The BV2 murine microglial cell line is used in these studies.
# (§2) The BV2 cells are cultured at 37° C. in a humidified atmosphere with 5% CO2 in high D-glucose (4.5 g/L) Dulbecco’s modified Eagle’s medium (Sigma, Rehovot, Israel) supplemented with 5% heat-inactivated fetal bovine serum, streptomycin (100 µg/ml), and penicillin (100 units/ml) and sodium pyruvate (1 mM; all from Biological Industries Ltd., Kibbutz Beit Haemek, Israel). 24 hours before experiments with LPS stimulation, the BV2 cells are split into 24 well plates, 2×10^5 cells per well, covered with 1 ml of growth medium and allowed to attach overnight. 24 hr before experiments with α-synuclein, the BV2 cells are split into 96-well plates, 50,000 (5×10^4) cells per well, covered with 200 µl of growth medium and allowed to attach overnight. Cultures of BV2 microglia cells are first treated by an individual cannabinoid, or terpene or flavonoid selected from: Cannabidiol (CBD), Δ-9-tetrahydrocannabinol (THC), Δ-8-tetrahydrocannabinol (THC), cannabigerol (CBG), cannabichromene (CBC), cannabigerolic acid (CBGA), Cannabidiolic acid (CBDA), THC acid (THCA), cannabichromenic Acid (CBCA), Cannabidivarin (CBDV), tetrahydrocannabivarin (THCV), Cannabichromevarin (CBCV), Cannabichromerocin ([…]), Cannabivarin (CBV), Cannabicitran (CBT), Cannabinol (CBN), Cannabicyclol (CBL), Cannabigerorcin (CBGO), Cannabinodiol (CBND), β-caryophyllene, β-elemene, β-myrcene, linalool, α-pinene, β-pinene, eucalyptol, alpha-terpineol, valencene, geraniol (lemonol), bisabolol, nerolidol, ocimene, terpinolene, humulene, α-terpinene, camphene, fenchol, α-phellandrene, Δ3-carene, γ-cardinene, sabinene, limonene, β-amyrin, cycloartenol, cannflavin A, cannflavin B, kaempferol, quercetin, luteolin, apigenin, canniprene, orientin, β-sitosterol, vitexin, isovitexin, and chrysin. Additional cultures of BV2 microglia cells are treated by an individual cannabinoid, with at least one additional cannabinoid, and/or terpene, and/or flavonoid, and/or celecoxib. Additional cultures are exposed to the vehicle of these compounds (cremophor, ethanol and PBS, 1:1:18 (v/v/v)) (FIG. 2A). In some studies, cultures of BV2 microglia cells are treated by a specific whole plant cannabis extract, with or without supplementation with cannabinoid(s), and/or terpene(s) and/or flavonoid(s), and/or celecoxib (FIG. 2B).
# For each individual cannabinoid mentioned above, 3-4 concentrations are used, ranging from 0.1 to 10 µM. For ultra-low dose Δ9-THC the concentration used is 0.01 µM. […] For celecoxib, 3-4 concentrations are used, ranging from 0.1 to 10 µM. Two hours following the treatment, the cultures are exposed to one of the following microglia stimulators: LPS (Sigma L2630; Escherichia coli serotype O111:B4) is dissolved in D-PBS (Sigma, D8537) to a pre-stock concentration of 1 mg/ml, aliquoted and stored at -80° C. Stock solution of LPS at 10 ug/ml is prepared using sterile D-PBS, followed by filtering via 0.22 µm filter membrane, aliquoting and storing in -20° C. LPS is applied into the cell medium at a final concentration of 100 ng/ml. Poly I:C (Sigma, P1530) was first dissolved in sterile, molecular grade water to the concentration of 10 mg/ml (following the manufacturer’s instructions). This stock solution was further diluted to the concentration of 1 mg/ml in sterile PBS, and the aliquots stored in -20 °C.
# LPS-injected mice = experiment: Body weight change and food consumption in the LPS-induced model of depression; assay type: in vivo; conditions: Example 9; male C57BL/6, i.p. 1 h before LPS 330 µg/kg; mg/kg: CBD 30; CBD 30 plus THC 10; cannabinol 10; CBD 30 plus BCP 50
# Excerpt: Animals were housed 2-3/cage, kept in an air-conditioned room (23+°C) and given ad libitum access to food and water. The mice were kept in a reversed light/dark cycle, with lights off from 7 a.m. to 7 p.m. All experiments were approved by the Hebrew University of Jerusalem Ethics Committee on Animal Care and Use. In preparation for the Sucrose Preference Test, mice were habituated 2-3 times to sucrose drinking, by exposing them overnight to two graduated tubes, one containing water and the other containing sucrose solution (1%, w/v). Water and sucrose consumption were measured, and sucrose preference was computed by dividing the amount of sucrose consumed by drinking (ml sucrose) by the total drinking volume (ml of sucrose + water). One day later, the weight of the mice and the food in their cages was weighed for later analysis of food consumption and body weight changes. Groups of mice were injected intraperitoneally (i.p.) with either vehicle (cremophor, ethanol and PBS, 1:1:18 (v/v/v)) or a cannabinoid-based formulation (by itself or with another cannabinoid, or a terpene or a flavonoid). One hour later, each of these groups was injected with LPS (330 µg/kg). All injections were administered at a dose of 10 ml/kg. Four hours following the LPS injection, mice were tested in the Open-Field Test. In this test, the measured locomotor activity reflects not only motor capacity, but particularly the innate motivation for spatial exploration (which increases the distance travelled) and the anxiety level (which reduces the distance travelled, in general, and particularly the distance and time spent in the center of the open field). Each subject was placed near one of the walls of a white 50 X 50 cm^2 arena with 40 cm high walls. The distance travelled (cm), the velocity of the movement (cm/second), the time spent (seconds), distance travelled (cm) in the center area of the arena, as well as the number of entries from the perimeter area into the center of the arena were automatically measured over a 4-minute period, using EthoVision XT video tracking system and software (Noldus, The Netherlands). Twenty-four hours after the LPS injection, mice were tested in the Social Exploration Test. In this test, the subject was placed in an observation cage containing a small metal wire mesh cage with a conspecific mouse inside it. Social exploration, defined as the time of near contact between the nose of the subject and the juvenile in the small cage was recorded for 4 min, using computerized in-house software. Sucrose preference was assessed, as described above, between 8 to 27 hr post LPS injection. Body weight and weight of the food were measured two hours before the LPS injection, and again after 24 hours, and the change in body weight and food consumption were calculated.
# This particular study was conducted in several experimental cohorts, and not all compounds and all measures were studied in all cohort. However, each cohort included a vehicle-treated group; therefore, the scores in each behavioral test were converted to % of mean vehicle-treated group in every individual cohort/experiment. Statistical comparisons were computed using SPSS software and consisted of one-way analyses of variance (ANOVA), followed by post-hoc comparisons with the Student-Newman-Keuls method.
# BV2 microglial cells [2] = experiment: α-synuclein-induced TNFα secretion by BV2 microglia cell cultures; assay type: cell-based, murine; conditions: Mus musculus
# Description: as §2
# For each individual cannabinoid mentioned above, 3-4 concentrations are used, ranging from 0.1 to 10 µM. For ultra-low dose Δ9-THC the concentration used is 0.01 µM. For each individual terpene or flavonoid mentioned above, 3-4 concentrations are used, ranging from 1 to 50 µM. For celecoxib, 3-4 concentrations are used, ranging from 0.1 to 10 µM. Two hours following the treatment, the cultures are exposed to one of the following microglia stimulators: LPS (Sigma L2630; Escherichia coli serotype O111:B4) is dissolved in D-PBS (Sigma, D8537) to a pre-stock concentration of 1 mg/ml, aliquoted and stored at -80° C. Stock solution of LPS at 10 ug/ml is prepared using sterile D-PBS, followed by filtering via 0.22 µm filter membrane, aliquoting and storing in -20° C. LPS is applied into the cell medium at a final concentration of 100 ng/ml. Poly I:C (Sigma, P1530) was first dissolved in sterile, molecular grade water to the concentration of 10 mg/ml (following the manufacturer’s instructions). This stock solution was further diluted to the concentration of 1 mg/ml in sterile PBS, and the aliquots stored in -20 °C. […] To induce oligomerization, α-Synuclein solution is placed for 24 hours on a shaker with agitation of 80 rpm and at 37° C.
# BV2 microglial cells [3] = experiment: LPS-induced IL-6 release by BV2 microglia cell cultures (ELISA); assay type: cell-based, murine
# Description: as §1, §2
# (§3) For each individual cannabinoid mentioned above, 3-4 concentrations are used, ranging from 0.1 to 10 µM. For ultra-low dose Δ9-THC the concentration used is 0.01 µM. For each individual terpene or flavonoid mentioned above, 3-4 concentrations are used, ranging from 1 to 50 µM. For celecoxib, 3-4 concentrations are used, ranging from 0.1 to 10 µM. Two hours following the treatment, the cultures are exposed to one of the following microglia stimulators: LPS (Sigma L2630; Escherichia coli serotype O111:B4) is dissolved in D-PBS (Sigma, D8537) to a pre-stock concentration of 1 mg/ml, aliquoted and stored at -80° C. Stock solution of LPS at 10 ug/ml is prepared using sterile D-PBS, followed by filtering via 0.22 µm filter membrane, aliquoting and storing in -20° C. LPS is applied into the cell medium at a final concentration of 100 ng/ml. Poly I:C (Sigma, P1530) was first dissolved in sterile, molecular grade water to the concentration of 10 mg/ml (following the manufacturer’s instructions). This stock solution was further diluted to the concentration of 1 mg/ml in sterile PBS, and the aliquots stored in -20 °C.
# BV2 microglial cells [4] = experiment: LPS-induced IL-1β release by BV2 microglia cell cultures (ELISA); assay type: cell-based, murine
# Description: as §1, §2, §3
smiles,measurement,setting,value
C=C(C)[C@H]1CC=C(C)CC1 [limonene],effect on lipopolysaccharide-induced TNFα secretion,BV2 microglial cells [1],no effects
CCCCCc1cc(O)c2c(c1)OC(C)(C)c1ccc(C)cc1-2 [cannabinol],food consumption over 24 hr vs vehicle-treated group,LPS-injected mice,consumed significantly less food
Cc1ccc(-c2cc(C(F)(F)F)nn2-c2ccc(S(N)(=O)=O)cc2)cc1 [celecoxib],IC50,"BV2 microglial cells [2]; BV-2, Example 8 (FIG. 9B), by itself, read-out: IC50, α-synuclein-induced TNFα release",4.2 µM
same,IC50,"BV2 microglial cells [2]; BV-2, addition of 1 µM CBD, read-out: celecoxib IC50, α-synuclein-induced TNFα release",2 µM
same,IC50,"BV2 microglial cells [2]; BV-2, addition of 2.5 µM CBD, read-out: celecoxib IC50, α-synuclein-induced TNFα release",1.7 µM
same,IC50,"BV2 microglial cells [2]; BV-2, addition of 5 µM CBD, read-out: celecoxib IC50, α-synuclein-induced TNFα release",1.1 µM
C=CC(C)(O)CCC=C(C)C (stereo not shown) [linalool],levels of TNFα compared to cultures treated with vehicle and LPS,BV2 microglial cells [1],reduced
C=C1CCC2CC1C2(C)C (stereo not drawn) [β-pinene],effect on lipopolysaccharide-induced TNFα secretion,BV2 microglial cells [1],no effects
"C=C(C)[C@@H]1CCC(C)=C[C@H]1c1c(O)cc(CCC)cc1O [CBDV, cannabidivarin]",IL-6 secretion vs Veh plus LPS,"BV2 microglial cells [3]; Example 6, CBD or CBDV given by themselves",no significant effect
same,times less potent than CBD in inhibiting IL-6 release,"BV2 microglial cells [3]; Example 6, IC50 comparison",about 2 times
same,IC50,"BV2 microglial cells [3]; Mus musculus, BV-2, Example 6 (FIG. 7D), by itself, read-out: IC50 for inhibiting LPS-induced IL-6 release",9.6 µM
same,times less potent than CBD in inhibiting TNFα release,"BV2 microglial cells [1]; Example 6, IC50 comparison",~6 times
same,release of TNFα vs LPS-activated cultures treated with vehicle,"BV2 microglial cells [1]; Example 6, by itself, CBD 1, 2.5 and 5 µM, CBDV 1, 2.5, 5 and 10 µM",no concentration of either CBD or CBDV by itself affected release of TNFα
same,IC50,BV2 microglial cells [1],27.9 µM
CC1=CCC2CC1C2(C)C (stereo not drawn) [α-pinene],effect on lipopolysaccharide-induced TNFα secretion,BV2 microglial cells [1],no effects
O=c1c(O)c(-c2ccc(O)c(O)c2)oc2cc(O)cc(O)c12 [quercetin],IL-1β release vs Veh plus LPS,"BV2 microglial cells [4]; Example 5, alone at 5 µM, no effect at 1 and 2.5 µM",significantly decreased IL-1β levels
same,IC50,"BV2 microglial cells [4]; Mus musculus, BV-2, Example 5 (FIG. 6D), by itself, read-out: IC50 for inhibiting LPS-induced IL-1β release",2.6 µM
same,levels of TNFα compared to cultures treated with vehicle and LPS,BV2 microglial cells [1],reduced
same,release of TNFα vs LPS-activated cultures treated with vehicle,"BV2 microglial cells [1]; Example 5, by themselves, CBD 1 and 2.5 µM, quercetin 1, 2.5 and 5 µM",did not affect
same,IC50,BV2 microglial cells [1],6.2 µM
"CCCCCc1cc(O)c2c(c1)OC(C)(CCC=C(C)C)C=C2 (stereo not shown) [CBC, cannabichromene]",effect on lipopolysaccharide-induced TNFα secretion,BV2 microglial cells [1],no effect
"CCCCCc1cc(O)c2c(c1)OC(C)(C)[C@@H]1CCC(C)=C[C@@H]21 [THC, Δ-9 tetrahydrocannabinol]",effect on lipopolysaccharide-induced TNFα secretion,BV2 microglial cells [1],no effect
